We go through 15 compounds from patent US20040034105A1, “Use of 1-phenyl-3-dimethylaminopropane compounds for treatment of urinary incontinence” (Gruenenthal GmbH, priority 2000, published 2004).

The test system of one experiment is female rats. The experiment can be described thus: Cystometry investigations in narcotised fresh rats (suppression of spontaneous bladder contractions). The experiment is classed as in vivo, rat. The conditions noted are these: intravenous, cumulative, mean value from at least two experiments. On the procedure:
The cystometric investigation was carried out on fresh female rats according to the method of Kimura et al. (Kimura et al., 1996, Int. J. Urol. 3: 218-227). The abdomen of narcotised ventilated rats is opened and the ureter is ligated. The urine is drawn off from the kidneys. A catheter is inserted into the bladder and secured in place. […] The test substance is applied intravenously in a cumulative manner after stable starting values were reached. An effect on the bladder function is manifested by the suppression of the spontaneous contractions. The disappearance of the contractions over a period of 10 minutes serves as a parameter for their suppression.
With all the substances listed there was a measurable suppression of the spontaneous contractions in rats, Table 2 showing the mean value of the lowest dose from at least two experiments, in which contractions disappeared for the first time over a period of 10 minutes.

The subject of experiment [1] is female Sprague-Dawley rats. Kind of experiment: Cystometry tests on conscious fresh rats. The experiment is classed as in vivo, rat. Conditions: for BC Bladder Capacity (change compared to the baseline value) / ICI Inter-Contraction Interval (change compared to the baseline value) / TP Threshold Pressure (change compared to the baseline value): effect maximum, mean of 3 micturition cycles; for Activity of the enantiomers of racemic compound 1 in cystometry: iv. On the procedure:
Three days after implantation of bladder and venous catheters the animals were investigated in the conscious state while freely moving. The bladder catheter was connected to a pressure gauge and an injection pump. The animals were placed in metabolic cages that enable the volume of urine to be measured. Physiological saline solution was infused (10 ml/hour) into the emptied bladder and the bladder pressure and volume of urine were continuously recorded. After a stabilisation phase a 20-minute phase was recorded that was characterised by normal, reproducible micturition cycles. The following parameters among others were measured:
threshold pressure TP, bladder pressure immediately before micturition,
bladder capacity BC, residual volume after prior micturition plus volume of infused solution during the filling phase,
intercontraction interval ICI, i.e. the time interval between consecutive micturition.
An increase in the threshold pressure (TP) indicates an important therapeutic effect in one of the medical conditions covered by the invention. Also, the intercontraction interval (ICI) is an important parameter for measuring the physiological effectiveness of a substance in the treatment of urinary incontinence, as is the bladder capacity (BC). In this connection, on account of the widely differing causes of the symptoms of these disease patterns it is not necessary to influence positively all three parameters in order for a medicament to be effective.
After recording three reproducible micturition cycles to provide a baseline value, the test substances 1 (1.0 mg/kg), 2 (0.1; 0.3 and 0.5 mg/kg), 21 (0.5 mg/kg), 7 (0.3 mg/kg), 8 (1.0 mg/kg), 9 (0.5 mg/kg) and 11 (0.5 mg/kg) in a vehicle comprising 0.9% NaCl were applied intravenously and the effect on the cystometric parameters was recorded at 90 to 120 minutes. In the effect maximum the mean value of 3 micturition cycles was determined and recorded as a percentage change compared to the baseline value (Table 1).

Marks after values point to notes of the source that are not given here.

With `CCC(O)(c1cccc(OC)c1)C1(CN(C)C)CCCCC1.Cl` (racemic) [Compound 13, (1RS)-1-(1-dimethylaminomethylcyclohexyl)-1-(3-methoxyphenyl)-propan-1-ol, hydrochloride], the “Lowest Dose at which contractions disappeared for the first time over a period of 10 minutes” value (“Lowest Dose … over a period of 10 minutes” below) with female rats is reported as 20.0 mg/kg.
As to `CC[C@](O)(c1cccc(C(F)F)c1)[C@H](C)CN(C)C.Cl` (racemic) [Compound 4, (2RS,3RS)-3-(3-difluoromethylphenyl)-1-dimethylamino-2-methylpentan-3-ol, hydrochloride], in the experiment with female rats, the “Lowest Dose … over a period of 10 minutes” value was determined as 1.7 mg/kg.
In the case of `C[C@H](CN(C)C)[C@@](C)(O)c1cccc(O)c1.Cl` [Compound 10, (+)-(1R,2R)-3-(3-dimethylamino-1-hydroxy-1,2-dimethylpropyl)-phenol, hydrochloride], the “Lowest Dose … over a period of 10 minutes” value in the experiment with female rats was found to be 0.2 mg/kg.
`C[C@H](CN(C)C)[C@@](C)(O)c1cccc(O)c1.Cl` [Compound 9, (+)-(1R,2R)-3-(3-dimethylamino-1-hydroxy-1,2-dimethylpropyl)-phenol, hydrochloride]: in experiment [1] (0.5 mg/kg iv), the “BC Bladder Capacity (change compared to the baseline value)” value is “+50%**”, the “ICI Inter-Contraction Interval (change compared to the baseline value)” value is reported as “+21%*” and the “TP Threshold Pressure (change compared to the baseline value)” value is recorded as “+56%**”.
For the compound `CC[C@](OC(C)=O)(c1cccc(OC)c1)[C@H](C)CN(C)C.Cl` [Compound 12, (+)-(1R,2R)-acetic acid-3-dimethylamino-1-ethyl-1-(3-methoxyphenyl)-2-methylpropyl ester, hydrochloride], the “Lowest Dose … over a period of 10 minutes” value in the experiment on female rats is given as 30.0 mg/kg.
Regarding `CC[C@](O)(c1cccc(OC)c1)[C@H](C)CN(C)C.Cl` [Compound 2, (+)-(2R,3R)-1-dimethylamino-3-(3-methoxyphenyl)-2-methylpentan-3-ol, hydrochloride], in experiment [1] (0.1 mg/kg iv), the “BC Bladder Capacity (change compared to the baseline value)” value is on record as “+7.8%”, the “ICI Inter-Contraction Interval (change compared to the baseline value)” value is reported as “+15.6%” and the “TP Threshold Pressure (change compared to the baseline value)” value is given as “+28.5%**”. In experiment [1] (0.3 mg/kg iv), the “BC Bladder Capacity (change compared to the baseline value)” value is “+33%*”, the “ICI Inter-Contraction Interval (change compared to the baseline value)” value is recorded as “+28%*” and the “TP Threshold Pressure (change compared to the baseline value)” value was “+122%**”. In experiment [1] (0.5 mg/kg iv), the “BC Bladder Capacity (change compared to the baseline value)” value is on record as “+20.6%*”, the “ICI Inter-Contraction Interval (change compared to the baseline value)” value is reported as “+28.6%**” and the “TP Threshold Pressure (change compared to the baseline value)” value is “+77.5%**”. Also, the “Activity of the enantiomers of racemic compound 1 in cystometry” value in experiment [1] is recorded as “effectively active”.
In the case of `CC[C@](O)(c1cccc(SC)c1)[C@H](C)CN(C)C.Cl` (racemic) [Compound 5, (2RS,3RS)-1-dimethylamino-2-methyl-3-(3-methylsulfanylphenyl)-pentan-3-ol, hydrochloride], in the experiment with female rats, the “Lowest Dose … over a period of 10 minutes” value was 2.3 mg/kg.
Take `CC[C@](O)(c1ccc(Cl)cc1)[C@H](C)CN(C)C.Cl` (racemic) [Compound 14, (2RS,3RS)-3-(4-chlorophenyl)-1-dimethylamino-2-methylpentan-3-ol, hydrochloride]: in the experiment with female rats, the “Lowest Dose … over a period of 10 minutes” value worked out at 20.0 mg/kg.
In the case of `CC[C@@H](c1cccc(O)c1)[C@@H](C)CN(C)C.Cl` [Compound 11, (−)-(1R,2R)-3-(3-dimethylamino-1-ethyl-2-methylpropyl)-phenol, hydrochloride], in experiment [1] (0.5 mg/kg iv), the “BC Bladder Capacity (change compared to the baseline value)” value was “+11%”, the “ICI Inter-Contraction Interval (change compared to the baseline value)” value is reported as “+22.6%” and the “TP Threshold Pressure (change compared to the baseline value)” value was “+9%”.
Regarding `CCC(O)(c1cccc(O)c1)C(C)CN(C)C.Cl` (racemic) [Compound 7, (2RS,3RS)-3-(3-dimethylamino-1-ethyl-1-hydroxy-2-methylpropyl)-phenol, hydrochloride], in experiment [1] (0.3 mg/kg iv), the “BC Bladder Capacity (change compared to the baseline value)” value was “+32%*”, the “ICI Inter-Contraction Interval (change compared to the baseline value)” value was “+28%*” and the “TP Threshold Pressure (change compared to the baseline value)” value was “+95%**”.
With `CC[C@@](O)(c1cccc(OC)c1)[C@@H](C)CN(C)C.Cl` [Compound 21, (−)-(2S,3S)-1-dimethylamino-3-(3-methoxyphenyl)-2-methylpentan-3-ol, hydrochloride], in experiment [1] (0.5 mg/kg iv), the “BC Bladder Capacity (change compared to the baseline value)” value is “+3%”, the “ICI Inter-Contraction Interval (change compared to the baseline value)” value was “+10%” and the “TP Threshold Pressure (change compared to the baseline value)” value is reported as −1.1%. In addition, the “Activity of the enantiomers of racemic compound 1 in cystometry” value in experiment [1] is “plays only a contributory role”.
`COc1cccc(C(O)(CCN(C)C)C(C)(C)C)c1.Cl` (racemic) [Compound 6, (3RS)-1-dimethylamino-3-(3-methoxyphenyl)-4,4-dimethylpentan-3-ol, hydrochloride]: the “Lowest Dose … over a period of 10 minutes” value in the experiment on female rats turned out to be 16.7 mg/kg.
Regarding `CC[C@](O)(c1cccc(OC)c1)[C@H](C)CN(C)C.Cl` (racemic) [Compound 1, (2RS,3RS)-1-dimethylamino-3-(3-methoxyphenyl)-2-methylpentan-3-ol, hydrochloride], in experiment [1] (1.0 mg/kg iv), the “BC Bladder Capacity (change compared to the baseline value)” value is on record as “+31%***”, the “ICI Inter-Contraction Interval (change compared to the baseline value)” value is “+42%” and the “TP Threshold Pressure (change compared to the baseline value)” value is on record as “+94%**”.
Regarding `C[C@H](CN(C)C)[C@@](C)(O)c1cccc(O)c1.Cl` (racemic) [Compound 8, (1RS,2RS)-3-(3-dimethylamino-1-hydroxy-1,2-dimethylpropyl)-phenol, hydrochloride], in experiment [1] (1.0 mg/kg iv), the “BC Bladder Capacity (change compared to the baseline value)” value is “+7%”, the “ICI Inter-Contraction Interval (change compared to the baseline value)” value is “+14.4%” and the “TP Threshold Pressure (change compared to the baseline value)” value was “+60%**”.
As for `CC[C@](O)(c1ccc(Cl)c(Cl)c1)[C@H](C)CN(C)C.Cl` (racemic) [Compound 3, (2RS,3RS)-3-(3,4-dichlorophenyl)-1-dimethylamino-2-methylpentan-3-ol, hydrochloride], in the experiment with female rats, the “Lowest Dose … over a period of 10 minutes” value came out at 23.3 mg/kg.
